Bounds are passed on as bounds.

For orientation: IC50 means the concentration at which inhibition is half-maximal. A high value points to lower potency.

For the experiment, the target named is T1, gamma secretase (Homo sapiens, UniProt P49768).
T1 construct: HEK293 cells stably expressing full length Amyloid Precursor Protein (APP); endogenous in cells; host or cells: HEK 293 cells stably expressing full length APP
Kind of experiment: GSM cell-based assay: Aβ 42 inhibition or reduction in HEK 293 cells over-expressing APP (sandwich ELISA). The following applies: approximate IC50; HEK293 cells stably expressing full length APP, 24 hours incubation, 10-point dose response starting at 10 μM. The source says:
GSM cell-based assays were designed to measure the modulation of Aβ 42 from HEK 293 cells over-expressing APP.
Three simultaneous cell-based assays, namely Aβ 42 inhibition or reduction, Aβ 40 inhibition or reduction and a measurement of cell viability of the cells from which the Aβ 42/40 readout was obtained, together gave an interpretation of gamma secretase modulation (GSM). The assays measure Aβ 42 and Ab 40 from conditioned medium of test compound treated HEK 293 cells.
HEK293 cells stably expressing full length Amyloid Precursor Protein (APP) were plated at a density of 100K cells/well in 96 well plates (Costar). The cells were cultivated for 6 hours at 37° C. and 5% CO2 in DMEM supplemented with 10% FBS. The test compounds were then added to cells in 10-point dose response concentrations with the starting concentration being 10 μM. The compounds were diluted from stock solutions in DMSO and the final DMSO concentration of the test compounds on cells was 0.1%. After 24 hours of incubation with the test compounds the supernatant conditioned media was collected and the Aβ 42, Aβ 40 levels were determined using a sandwich ELISA. A cell viability test (CellTiter-Blue Cell Viability assay, Promega) on the cells from which the conditioned medium was harvested for Aβ 42 or Aβ 40 readouts gave an indication of cell survivability as a possible reason for false positive Aβ 42 or 40 reduction or inhibition readout. The IC50 of the compound (for either Aβ 42 or Aβ 40) was calculated from the percent of control or percent inhibition of Aβ 42 or Aβ 40 as a function of the concentration of the test compound.
The sandwich ELISA to detect Aβ 42 or Aβ 40 was performed in 96 well microtiter plates, which were pre-treated with goat anti-rabbit IgG (Pierce). The capture and detecting antibody pair that were used to detect Aβ 42 and Aβ 40 from cell supernatants were rabbit monoclonal Antibody 42 (RabMAb 42) and affinity purified polyclonal Antibody 40 pAB40 (Biosource) as capture antibodies and biotinylated 6E10 (Signet Labs Inc.) as detection antibody. The optimal concentration for RabMAb 42 was 1 μg/ml in Superblock/TBS (Pierce) that was supplemented with 0.05% Tween 20 (Sigma). The optimal concentration for the pAb40 antibody was 3 μg/ml in Superblock/TBS (Pierce) that was supplemented with 0.05% Tween 20 (Sigma). Optimal concentration for the detection antibody 6E10-biotinylated was 0.5 μg/ml in Superblock/TBS (Pierce) that had been supplemented with 2% normal goat serum and 2% normal mouse serum.
Cellular supernatants were incubated with the capture antibody for 16-20 hours at 4° C., followed by 3 wash steps in TBS-tween (0.05%). The detecting antibody incubation was for 3 hours at 4° C., again followed by the wash steps as described previously. The final readout of the ELISA is Time-Resolved Fluorescence (counts per minute) using Delfia reagents Streptavidin-Europium and Enhancement solutions (Perkin Elmer) and the EnVision Multilabel plate reader (Perkin Elmer).
For orientation: ELISA stands for enzyme-linked immunosorbent assay.
`Cc1cc(-c2ccc(NC(=O)C(C)c3cccc(-c4ccsc4)c3)cc2)ccn1` (stereo not drawn) [Cpd 174, N-(4-(2-methyl-4-pyridinyl)phenyl)-2-(3-(3-thiophenyl)phenyl)propanamide] gave an IC50 of 1.27 µM. Next, `Cc1cc(-c2ccc(NC(=O)c3cccc(C(F)(F)F)c3)cc2)ccn1` [Cpd 279]: more than 10 µM; `Cc1cc(-c2ccc(NC(=O)C(C)c3cccc(-c4ccc(S(C)(=O)=O)cc4)c3)cc2)ccn1` (stereo not drawn) [Cpd 442, N-(4-(2-methyl-4-pyridinyl)phenyl)-2-(4′-(methylsulfonyl)-3-biphenylyl)propanamide]: 0.628 µM. Next, `Cc1cc(-c2ccc(NC(=O)Cc3ccc4oc(-c5ccncc5)nc4c3)cc2)ccn1` [Cpd 584, N-(4-(2-methyl-4-pyridinyl)phenyl)-2-(2-(4-pyridinyl)-1,3-benzoxazol-5-yl)-acetamide]: more than 10 µM.

Compound `Cc1cc(-c2ccc(NC(=O)C3CC34CCC4)cc2)ccn1` (stereo not drawn) [Cpd 186] returned an IC50 of more than 10 µM. Regarding `COc1cc(NC(=O)C(C)c2cccc(Br)c2)ccc1-c1ccnc(C)c1` (stereo not drawn) [Cpd 143], the IC50 amounted to 0.485 µM. The result for `COc1cc(NC(=O)C(C)c2cccc(-c3ccc(N4CCOCC4)cc3)c2)ccc1-c1ccnc(C)c1` (stereo not drawn) [Cpd 191] reads 0.179 µM; that for `Cc1cc(-c2ccc(NC(=O)C(C)n3cnc(-c4ccccc4)c3)cc2)ccn1` (stereo not drawn) [Cpd 151, N-(4-(2-methyl-4-pyridinyl)phenyl)-2-(4-phenyl-1H-imidazol-1-yl)propanamide], 0.582 µM; that for `Cc1cc(-c2ccc(NC(=O)C(C)c3cccc(Br)c3)cc2C#N)ccn1` (stereo not drawn) [Cpd 460, 2-(3-bromophenyl)-N-(3-cyano-4-(2-methyl-4-pyridinyl)phenyl)propanamide], 5.76 µM.

Compound `Cc1cc(-c2ccc(NC(=O)[C@@H](C)c3cc(C(F)(F)F)cc(C(F)(F)F)c3)cc2)ccn1` [Cpd 290, (2S)-2-(3,5-bis(trifluoromethyl)phenyl)-N-(4-(2-methyl-4-pyridinyl)phenyl)-propanamide] displayed an IC50 of more than 10 µM. Next, `Cc1cc(-c2ccc(NC(=O)C(C)c3cccc(-c4ccc(OC(F)(F)F)cc4)c3)cc2)ccn1` (stereo not drawn) [Cpd 453, N-(4-(2-methyl-4-pyridinyl)phenyl)-2-(4′-(trifluoromethoxy)-3-biphenylyl)-propanamide]: 1.42 µM; `Cc1cc(-c2ccc(NC(=O)Cc3ccc(Oc4ccccc4)cc3)cc2)ccn1` [Cpd 112]: 5.78 µM; `Cc1cc(-c2ccc(NC(=O)C(CC(C)C)C3CCOCC3)cc2)ccn1` (stereo not drawn) [Cpd 173]: more than 10 µM. `COc1cc(NC(=O)[C@H](C)c2cccc(Br)c2)ccc1-c1ccnc(C)c1` [Cpd 461, (2R)-2-(3-bromophenyl)-N-(3-methoxy-4-(2-methyl-4-pyridinyl)phenyl)propanamide] returned an IC50 of 0.911 µM.

Regarding `Cc1cc(-c2ccc(NC(=O)Cc3cc(C(F)(F)F)cc(C(F)(F)F)c3)cc2)ccn1` [Cpd 87, 2-(3,5-bis(trifluoromethyl)phenyl)-N-(4-(2-methyl-4-pyridinyl)phenyl)acetamide], inhibition was half-maximal at 0.461 µM (IC50). Next, `Cc1cc(-c2ccc(NC(=O)C(C)c3cccc(-c4ccc(N(C)C)cc4)c3)cc2)ccn1` (stereo not drawn) [Cpd 147, 2-(4'-(dimethylamino)-3-biphenylyl)-N-(4-(2-methyl-4-pyridinyl)phenyl)propanamide]: 0.116 µM; `Cc1cc(-c2ccc(NC(=O)Cc3c(F)cccc3Cl)cc2)ccn1` [Cpd 106, 2-(2-chloro-6-fluorophenyl)-N-(4-(2-methyl-4-pyridinyl)phenyl)acetamide]: more than 10 µM; `CC[C@H](C(=O)Nc1ccc(-c2ccnc(C)c2)cc1)c1ccccc1` [Cpd 345, (2S)-N-(4-(2-methyl-4-pyridinyl)phenyl)-2-phenylbutanamide]: 1.87 µM. Next, `Cc1cc(-c2ccc(NC(=O)C3(c4ccc(Cl)cc4Cl)CC3)cc2)ccn1` [Cpd 332]: 1.17 µM; `Cc1cc(-c2ccc(NC(=O)c3cccc(Oc4ccccc4)c3)cc2)ccn1` [Cpd 31]: 0.854 µM.

`Cc1cc(-c2ccc(NC(=O)C(C)c3ccc4c(c3)[nH]c3ccc(Cl)cc34)cc2)ccn1` (stereo not drawn) [Cpd 65, 2-(6-chloro-9H-carbazol-2-yl)-N-(4-(2-methyl-4-pyridinyl)phenyl)propanamide] came in with an IC50 of 0.108 µM. This IC50 lies about 7.9-fold lower than the previous one. In the case of `Cc1cc(-c2ccc(NC(=O)C(C)c3ccc(NCC4CC4)cc3)cc2)ccn1` (stereo not drawn) [Cpd 171, 2-(4-((cyclopropylmethyl)amino)phenyl)-N-(4-(2-methyl-4-pyridinyl)phenyl)-propanamide], inhibition was half-maximal at 2.48 µM (IC50). The result for `Cc1cc(-c2ccc(NC(=O)Cc3ccc(OC(F)(F)F)cc3)cc2)ccn1` [Cpd 110, N-(4-(2-methyl-4-pyridinyl)phenyl)-2-(4-(trifluoromethoxy)phenyl)acetamide] reads 3.27 µM; that for `Cc1cccc([C@H](CC(C)C)C(=O)Nc2ccc(-c3ccnc(C)c3)cc2)c1` [Cpd 105, (2S)-4-methyl-2-(3-methylphenyl)-N-(4-(2-methyl-4-pyridinyl)phenyl)pentanamide], 1.73 µM. Next, `Cc1cc(-c2ccc(NC(=O)c3ccc(-c4ccccc4)cc3)cc2)ccn1` [Cpd 280]: more than 10 µM; `Cc1cc(-c2ccc(NC(=O)C(C)c3cccc(Cl)n3)cc2)ccn1` (stereo not drawn) [Cpd 24, 2-(6-chloro-2-pyridinyl)-N-(4-(2-methyl-4-pyridinyl)phenyl)propanamide]: 1.97 µM. `Cc1cc(-c2ccc(NC(=O)Cc3ccc(-c4ccccc4)cc3)cc2)ccn1` [Cpd 19, 2-(4-biphenylyl)-N-(4-(2-methyl-4-pyridinyl)phenyl)acetamide] had an IC50 of 0.557 µM. The result for `COc1ccc2cc([C@@H](C)C(=O)Nc3ccc(-c4ccnc(C)c4)cc3)ccc2c1` [Cpd 66, (2R)-2-(6-methoxy-2-naphthalenyl)-N-(4-(2-methyl-4-pyridinyl)phenyl)propanamide] reads 0.205 µM; that for `Cc1cc(-c2ccc(NC(=O)c3cccc(-c4ccccc4)c3)cc2)ccn1` [Cpd 386], 0.874 µM. The result for `Cc1cc(-c2ccc(NC(=O)C(C)c3cccc(N4CCN(c5ccccn5)CC4)c3)cc2)ccn1` (stereo not drawn) [Cpd 139, N-(4-(2-methyl-4-pyridinyl)phenyl)-2-(3-(4-(2-pyridinyl)-1-piperazinyl)phenyl)-propanamide] reads 0.166 µM; that for `Cc1cc(-c2ccc(NC(=O)[C@H](C)c3cccc(-c4ccc(C(=O)O)cc4)c3)cc2)ccn1` [Cpd 639], more than 10 µM; that for `CC[C@@H](C(=O)Nc1ccc(-c2ccnc(C)c2)cc1)c1ccccc1` [Cpd 344, (2R)-N-(4-(2-methyl-4-pyridinyl)phenyl)-2-phenylbutanamide], more than 10 µM. The result for `Cc1cc(-c2ccc(NC(=O)C(C)c3cccc(Br)c3)c(C#N)c2)ccn1` (stereo not drawn) [Cpd 161, 2-(3-bromophenyl)-N-(2-cyano-4-(2-methyl-4-pyridinyl)phenyl)propanamide] reads more than 10 µM; that for `Cc1cc(-c2ccc(NC(=O)C(c3ccccc3)C(C)C)cc2)ccn1` (stereo not drawn) [Cpd 39, 3-methyl-N-(4-(2-methyl-4-pyridinyl)-phenyl)-2-phenylbutanamide], 0.474 µM. On to `Cc1cc(-c2ccc(NC(=O)c3ccc4[nH]c5c(c4c3)CSCC5)cc2)ccn1` [Cpd 662], for which the midpoint of inhibition, the IC50, lay at 5.1 µM. In turn, `CC(=O)N1CCC(C(=O)Nc2ccc(-c3ccnc(C)c3)cc2)CC1` [Cpd 55] yielded an IC50 of more than 10 µM. With `Cc1cc(-c2ccc(NC(=O)C(C)c3cccc(C4CC4)c3)cc2)ccn1` (stereo not drawn) [Cpd 524, 2-(3-cyclopropylphenyl)-N-(4-(2-methyl-4-pyridinyl)phenyl)propanamide], the IC50 turned out to be 1.2 µM. That is a single-digit micromolar value. Take `Cc1cc(-c2ccc(NC(=O)C(C)c3cccc(-c4ccc(N5CCOCC5)nc4)c3)cc2)ccn1` (stereo not drawn) [Cpd 135, N-(4-(2-methyl-4-pyridinyl)phenyl)-2-(3-(6-(4-morpholinyl)-3-pyridinyl)phenyl)-propanamide]: the IC50 came to 0.154 µM. Next, `Cc1cc(-c2ccc(NC(=O)Cc3ccc(C)s3)cc2)ccn1` [Cpd 38, N-(4-(2-methyl-4-pyridinyl)phenyl)-2-(5-methyl-2-thiophenyl)acetamid]: 2.37 µM.

Values taken from US20110166132A1, “Gamma Secretase Modulators” (Amgen Inc., priority 2007, published 2011).
